# Key:
# [1] = biological target: FGF2 (Homo sapiens, UniProt P09038); experiment: ITC or STD-NMR, FGF2; assay type: binding; design: FGF2 (amino acids 9-155); made in house
# Protocol: The extracellular domain (ECD; amino acids: 39-358) of the human FGFR1 gene (P11362) was PCR amplified and cloned into E. coli vector pETTEV (with a N-terminal His-tag followed by a TEV protease cleavage site), using NdeI and BamHI restriction sites. For protein production, the resulting plasmid (pET FGFR1 D1D2D3) was transformed into E. coli BL21(DE3) (Novagene). Cells were grown at 37° C. until the OD600 reached 0.6 and recombinant protein production was induced by adding 1 mM IPTG (isopropyl-b-D-thiogalactopyranoside). After 4 hours induction, cells were harvested and stored at −80° C. until usage. The cell pellet (1 L culture) was thawed and resuspended in 50 ml buffer 1 (20 mM Tris/HCl, pH 7.5, 200 mM NaCl) containing lysozyme (2 mg), and 40 U benzonase (Merck). […] Complex formation was analyzed by size exclusion chromatography and subsequent analysis on SDS-PAGE.
# All STD- and 1D-NMR experiments were carried out on a BRUKER three-channel DRX600 and on a BRUKER four-channel DRX800 spectrometer at the standard temperature of 298 K and were referenced to the internal standard 3-Trimethyl-2,2,3,3-tetradeuteropropionate-sodium salt (TSP). […] For protein ligand 1D STD NMR measurements spectra were recorded with 1 mM ligand SSR128129E (100 mM DMSO stock solution) and […] protein with weak 2s RF irradiation on separated protein methyl resonances. […]
# [2] = biological target: T1, FGFR3^∂23 (Homo sapiens, UniProt P22607); experiment: isothermal titration calorimetry (ITC), FGFR3; assay type: binding
# T1 construct: two ECD fragments, FGFR2^∂23 (consisting of domain D2 and 3) and FGFR3^∂23; made in house
# T1 sequence (P22607 145-365): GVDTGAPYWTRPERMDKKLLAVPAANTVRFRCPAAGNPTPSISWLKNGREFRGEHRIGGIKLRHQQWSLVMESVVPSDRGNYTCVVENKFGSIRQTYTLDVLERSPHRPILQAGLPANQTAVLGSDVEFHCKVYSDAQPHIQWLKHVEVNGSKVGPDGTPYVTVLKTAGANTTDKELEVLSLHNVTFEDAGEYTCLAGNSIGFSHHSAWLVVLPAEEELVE
# [3] = tested on: PANC02 cells; experiment: PANC02 migration; assay type: cell-based; details: 100 nM SSR; 100 ng/ml FGF7 with or without VEGF; FGFR2-IIIb
# Protocol: Cell proliferation was analysed on exponentially growing cells that were starved for 16 hours in 100 μl RPMI 1640 (Invitrogen, 32404-014) with 0.2% FBS (Hyclone, SH30070.03), 2 mM glutamine, MEM non-essential amino-acid 1× (Gibco, 11140-035), MEM sodium pyruvate 1× (Gibco, 11360-039) and seeded at 4,000 cells/well in 96-well microplates. After exposure to mitogens and/or SSR for 72 hours, cell proliferation was assessed with the use of the CellTiter 96 AQueous One Solution Cell Proliferation Assay (Promega, Madison, Wis., USA) according to manufacturer's instructions. Cell migration was assessed by a modified Boyden chamber assay, by using 24-well inserts containing 8 μm pore size transwell permeable supports with a polycarbonate membrane (Costar, Corning Inc.). Exponentially growing cells were starved in 0.2% FBS containing medium for 16 hours and resuspended at 5×10^5 cells/ml in the same low serum medium. 100 μl of the cell suspension were seeded in the upper chamber, while chemoattractants and/or SSR were placed in the lower chamber. 10% FBS containing medium was used a positive control. After 6 hours incubation at 37° C., cells on the upper side of the membrane were scraped using a cotton swab, while migrated cells on the lower surface were fixed with 4% formaldehyde and nuclei stained with DAPI for quantification.
# Chain of FGF2 (P09038 142-288): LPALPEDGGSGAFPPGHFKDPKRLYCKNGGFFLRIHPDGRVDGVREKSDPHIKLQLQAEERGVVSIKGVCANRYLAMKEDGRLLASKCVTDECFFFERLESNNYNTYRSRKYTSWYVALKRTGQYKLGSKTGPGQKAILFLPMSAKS
compound,measurement,setting,value
COc1c(C)c(C(=O)c2ccc(N)c(C(=O)[O-])c2)n2ccccc12.[Na+] [SSR],binding to FGF2,[1],failed to bind
same,binding to FGFR3,[2],bound
same,FGF7-induced PANC02 migration,[3],blocked
